These results are taken from US20190241569A1, “3-(ARYL OR HETEROARYL) METHYLENEINDOLIN-2-ONE DERIVATIVES AS INHIBITORS OF CANCER STEM CELL PATHWAY KINASES FOR THE TREATMENT OF CANCER” (Boston Biomedical, Inc., priority 2013, published 2019).

What is called IC50 is the midpoint of a concentration-inhibition curve. A high value points to weaker potency.

Like-named read-outs stand apart in the source and are kept apart here.

Holding throughout (type): cell-based
The subject of experiment [1] is ACHN CSC. The experiment can be described thus: Cancer stem cells, Cell Titer-Glo 72 hours (Test Example 3). The settings on record: Homo sapiens, ACHN, 72 h. In general terms: Cellular ATP, detected with luciferase, serves as a proxy for viable cell number.
For experiment [2], the system named is ACHN. The experiment can be described thus: Bulk cancer cells, Cell Titer-Glo 72 hours (Test Example 2). The conditions noted are these: Homo sapiens, ACHN, 72 h. The protocol:
(§1) Tubes of 3× drug (60 uM in 500 uL complete media) were prepared from 5 mM stock solutions in DMSO. […] To treat cells, 50 uL of drug from the dilution plate was removed and added to the cell plates. […] Cells were harvested 72 hours after drug addition using Cell Titer-Glo (Promega) and luminescence measured on a plate reader.

Experiment [3] relates to FaDu. Described as above. The conditions noted are these: Homo sapiens. The method, then: as §1
The test system of experiment [4] is A549. The description is as above. The settings on record: Homo sapiens. The protocol:
as §1

Experiment [5] deals with A549 CSC. The experiment can be described thus: Cancer stem cells, Cell Titer-Glo 72 hours (Test Example 3). The settings on record: Homo sapiens.
The subject of experiment [6] is FaDu CSC. Described as above. The settings on record: Homo sapiens, FaDu, 72 h.
The subject of experiment [7] is p-AMPK Thr172. The experiment is described as follows: Kinase inhibition, Western blot in HeLa cells (Test Example 5). The conditions noted are these: Homo sapiens, 6 hours, DMSO = 100, read-out: p-AMPK Relative Intensity (%). The protocol: (§2) HeLa cells were treated with 5 uM of the indicated compound for 6 hours. Following compound incubation, cells were washed twice with ice-cold PBS and lysed in lysis buffer (50 mM HEPES, pH 7.5, 1% Nonidet P40, 150 mM NaCl, 1 mM EDTA, 1× protease inhibitor cocktail (Promega)). 30 micrograms of soluble protein was separated by SDS-PAGE and transferred to PVDF membranes. Primary antibodies against p-AMPK Thr172, p-RPS6 Ser235/236, p-RPS6 Ser240/244, and Tubulin (Cell Signaling Technology) were used. The antigen-antibody complexes were visualized by enhanced chemiluminescence (BioRad). The results are shown below in Tables 17A-17E.
(In western blotting, separated proteins are transferred to a membrane and probed.)

Experiment [8] has as its system p-RPS6 Ser240/244. The experiment is described as above. The conditions noted are these: Homo sapiens, 6 hours, DMSO = 100, read-out: p-RPS6 Ser240/244 Relative Intensity (%). The protocol:
as §2

The subject of experiment [9] is p-RPS6 Ser235/236. The description is as above. The settings on record: Homo sapiens, 6 hours, DMSO = 100, read-out: p-RPS6 Ser235/236 Relative Intensity (%). The protocol: as §2

As to `Cc1[nH]c(/C=C2\C(=O)Nc3cc(-c4csc(-c5ccccc5)n4)ccc32)c(C)c1C(=O)N1CCN(C)CC1` [Example 8], the IC50 worked out at 0.39 µM in experiment [1]; 11.6 µM in experiment [2]; 4.74 µM in experiment [3]; 26.3 µM in experiment [4]; 1.22 µM in experiment [5]; 1.03 µM in experiment [6]. The activity at 5 µM in [7] (5 uM) was 150%; in [8] (5 uM), 73%; in experiment [9] (5 uM), 33%.
With `CCN(CC)CCNC(=O)c1c(C)[nH]c(/C=C2\C(=O)Nc3c2cccc3-c2csc(-c3ccccc3)n2)c1C` [Example 9], the IC50 turned out to be 0.28 µM in experiment [1]; 3.2 µM in experiment [2]; 3.75 µM in [3]; 1.96 µM in experiment [4]; 1.57 µM in [5]; 1.26 µM in experiment [6]. Further, the values for the activity at 5 µM in experiment [7] (5 uM), in experiment [8] (5 uM) and in experiment [9] (5 uM) were 144%, 32% and 2%, respectively.
With `Cc1[nH]c(/C=C2\C(=O)Nc3c2cccc3-c2csc(-c3ccccc3)n2)c(C)c1C(=O)N1CCN(C)CC1` [Example 10], the IC50 is 0.5 µM in experiment [1]; 15.2 µM in experiment [2]; 5.41 µM in experiment [3]; 5.41 µM in experiment [4]; 4.19 µM in experiment [5]; 2.99 µM in [6]. Moreover, the results for the activity at 5 µM in experiment [7] (5 uM), in experiment [8] (5 uM) and in experiment [9] (5 uM) were 122%, 32% and 2%, respectively.
On to `CCN(CC)CCNC(=O)c1c(C)[nH]c(/C=C2\C(=O)Nc3ccc(-c4ccc(-c5ccccc5)o4)cc32)c1C` [Example 56, (Z)-N-(2-(diethylamino)ethyl)-2,4-dimethyl-5-((2-oxo-5-(5-phenylfuran-2-yl)indolin-3-ylidene)methyl)-1H-pyrrole-3-carboxamide], for which the IC50 was found to be 0.25 µM in experiment [1]; 3.66 µM in experiment [2]; 3.09 µM in experiment [3]; 4.3 µM in [4]; 8.25 µM in experiment [5]; 1.41 µM in experiment [6]. In addition, the activity at 5 µM in experiment [7] (5 uM) came out at 144%; in experiment [8] (5 uM) it was 64%; in experiment [9] (5 uM), 19%.
For the molecule `CCN(CC)CCNC(=O)c1c(C)[nH]c(/C=C2\C(=O)Nc3cccc(-c4ccc(-c5ccccc5)cc4)c32)c1C` [Example 109], the IC50 in experiment [1] worked out at 0.33 µM; in [2], 1.6 µM; in experiment [3], 1.11 µM; in [4], 5.09 µM; in experiment [5], 4.32 µM; in experiment [6] it was 0.28 µM. The results for the activity at 5 µM in experiment [7] (5 uM), in experiment [8] (5 uM) and in experiment [9] (5 uM) were 8%, 23% and 2%, respectively.
For the molecule `CCN(CC)CCNC(=O)c1c(C)[nH]c(/C=C2\C(=O)Nc3ccc(-c4csc(-c5ccccc5)n4)nc32)c1C` [Example 118], the IC50 in experiment [1] turned out to be 0.97 µM; in experiment [2], 1.37 µM; in experiment [3], 1.37 µM; in experiment [4], 1.74 µM; in experiment [5], 0.62 µM; in experiment [6] it was 0.11 µM. Also, the activity at 5 µM came out at 35% in experiment [7] (5 uM), 42% in [8] (5 uM) and 5% in experiment [9] (5 uM).
Consider `Cc1[nH]c(/C=C2\C(=O)Nc3ccc(-c4csc(-c5ccccc5)n4)nc32)c(C)c1C(=O)NCCN1CCCC1` [Example 119], for which the IC50 amounted to 0.4 µM in [1]; 1.52 µM in experiment [2]; 1.73 µM in [3]; 1.43 µM in [4]; 2.47 µM in experiment [5]; 0.17 µM in experiment [6]. Further, the results for the activity at 5 µM in experiment [7] (5 uM), in [8] (5 uM) and in [9] (5 uM) were 41%, 51% and 13%, respectively.
As to `CCN(CC)CCNC(=O)c1c(C)[nH]c(/C=C2\C(=O)Nc3ccc(-c4csc(-c5ccc(O)cc5)n4)cc32)c1C` [Example 126], the IC50 in [1] turned out to be 0.5 µM; in experiment [2] it was 1.38 µM; in experiment [3], 0.7 µM; in experiment [4] it was 3.06 µM; in experiment [5], 6.99 µM; in experiment [6], 1.85 µM. For the same molecule, the values for the activity at 5 µM in [7] (5 uM), in experiment [8] (5 uM) and in experiment [9] (5 uM) were 47%, 88% and 79%, respectively.
As for `Cc1cc(C)c(/C=C2\C(=O)Nc3ccc(-c4csc(C5CCCNC5)n4)cc32)[nH]1` (stereo not shown) [Example 140], the IC50 was 0.05 µM in [1]; 1.64 µM in experiment [2]; 1.58 µM in experiment [3]; 1.34 µM in [4]; 1.7 µM in [5]; 0.48 µM in experiment [6]. Further, the activity at 5 µM was 69% in experiment [7] (5 uM), 34% in experiment [8] (5 uM) and 6% in experiment [9] (5 uM).
With `CCN(CC)CCNC(=O)c1c(C)[nH]c(/C=C2\C(=O)Nc3ccc(-c4ccc(-c5ccccc5)cn4)cc32)c1C` [Example 197], the IC50 in experiment [1] was determined as 0.65 µM; in experiment [2], 5.38 µM; in [3] it was 2.72 µM; in experiment [4], 2.02 µM; in experiment [5], 3.79 µM; in experiment [6] it was 4.81 µM. In addition, the activity at 5 µM was determined as 118% in [7] (5 uM), 82% in experiment [8] (5 uM) and 61% in experiment [9] (5 uM).
Consider `CCN(CC)CCNC(=O)c1c(C)[nH]c(/C=C2\C(=O)Nc3ccc(-c4cccnc4)cc32)c1C` [Example 210], for which the IC50 in experiment [1] is 1.06 µM; in [2] it was 1.31 µM; in experiment [3], 2.82 µM; in [4], 0.84 µM; in experiment [5] it was 3.9 µM; in experiment [6], 4.31 µM. Besides, the activity at 5 µM in experiment [7] (5 uM) came to 8%; in experiment [8] (5 uM), 31%; in [9] (5 uM) it was 1%.
On to `Cc1cc(C)c(/C=C2\C(=O)Nc3ccc(-c4ccc5cn[nH]c(=O)c5c4)cc32)[nH]1` [Example 240], for which the IC50 worked out at 0.26 µM in experiment [1]; 1.12 µM in experiment [2]; 2.55 µM in experiment [3]; 1.4 µM in experiment [4]; 3 µM in experiment [5]; 2.96 µM in experiment [6]. Further, the results for the activity at 5 µM in experiment [7] (5 uM), in [8] (5 uM) and in experiment [9] (5 uM) were 39%, 24% and 1%, respectively.
With `Cc1cc(C)c(/C=C2\C(=O)Nc3cccc(-c4ccncc4)c32)[nH]1` [Example 272], the IC50 came to 16.2 µM in experiment [1]; 19.8 µM in experiment [2]; 19.6 µM in experiment [3]; 13.1 µM in [4]; 30.3 µM in experiment [5]; 12.2 µM in experiment [6]. Also, the activity at 5 µM amounted to 75% in experiment [7] (5 uM compound, Western blot); 47% in experiment [8] (5 uM compound, Western blot); 50% in experiment [9] (5 uM compound, Western blot).
On to `COc1ncc(-c2cccc3c2NC(=O)/C3=C\c2[nH]c(C)cc2C)cn1` [Example 275], for which the IC50 in experiment [1] was 17.5 µM; in experiment [2], 21.9 µM; in [3], 20.8 µM; in experiment [4], 17.7 µM; in experiment [5], 34.7 µM. The activity at 5 µM in experiment [7] (5 uM compound, Western blot) was 96%; in experiment [8] (5 uM compound, Western blot) it was 54%; in experiment [9] (5 uM compound, Western blot), 57%.
`Cc1cncc(-c2cccc3c2NC(=O)/C3=C\c2[nH]c(C)cc2C)c1` [Example 280]: the IC50 in experiment [1] was determined as 32 µM; in [2] it was 16 µM; in [3], 26.4 µM; in experiment [4], 21.2 µM; in experiment [5], 32 µM. For the same molecule, the activity at 5 µM turned out to be 103% in experiment [7] (5 uM compound, Western blot); 75% in [8] (5 uM compound, Western blot); 74% in [9] (5 uM compound, Western blot).
For `CCN(CC)CCNC(=O)c1c(C)[nH]c(/C=C2\C(=O)Nc3c2cccc3-c2cncnc2)c1C` [Example 282], the IC50 in [1] was 10.9 µM; in experiment [2], 16.4 µM; in [3] it was 36.3 µM; in experiment [4], 21.5 µM; in experiment [5], 27.5 µM; in experiment [6] it was 6.73 µM. For the same molecule, the activity at 5 µM was found to be 60% in [7] (5 uM compound, Western blot); 72% in experiment [8] (5 uM compound, Western blot); 71% in experiment [9] (5 uM compound, Western blot).
Consider `CCN(CC)CCNC(=O)c1c(C)[nH]c(/C=C2\C(=O)Nc3c2cccc3-c2cncc(C)c2)c1C` [Example 283], for which the IC50 in experiment [1] came to 1.97 µM; in experiment [2], 1.68 µM; in experiment [3] it was 6.23 µM; in experiment [4], 3.36 µM; in experiment [5], 2.23 µM; in [6], 2.2 µM. The activity at 5 µM in experiment [7] (5 uM compound, Western blot) came out at 50%; in experiment [8] (5 uM compound, Western blot), 59%; in [9] (5 uM compound, Western blot), 47%.
